Reference: PubChem BioAssay (NCI)
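Each compound was tested at five concentrations against cells in 96-well plates for 48 hours. GI50 is the concentration that inhibits growth by half. Definition used: TGI = concentration required for complete inhibition of growth.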

Tests used:
Experiment in all cases: inhibition of tumour cell growth, NCI panel, 48 h
SN12C renal = tested on: SN12C renal
OVCAR-3 ovarian = tested on: OVCAR-3 ovarian
NCI-H23 lung = tested on: NCI-H23 lung
RXF 393 renal = tested on: RXF 393 renal
HOP-62 NSCLC = tested on: HOP-62 NSCLC
NCI-H522 lung = tested on: NCI-H522 lung
SR leukemia = tested on: SR leukemia
HCC-2998 colon = tested on: HCC-2998 colon

| Compound | GI50 (SN12C renal) [µM] | TGI (SN12C renal) [µM] | GI50 (OVCAR-3 ovarian) [µM] | TGI (OVCAR-3 ovarian) [µM] | GI50 (NCI-H23 lung) [µM] | TGI (NCI-H23 lung) [µM] | GI50 (RXF 393 renal) [µM] | TGI (RXF 393 renal) [µM] | GI50 (HOP-62 NSCLC) [µM] | TGI (HOP-62 NSCLC) [µM] | GI50 (NCI-H522 lung) [µM] | TGI (NCI-H522 lung) [µM] | GI50 (SR leukemia) [µM] | TGI (SR leukemia) [µM] | TGI (HCC-2998 colon) [µM] | GI50 (HCC-2998 colon) [µM] |
| --- | --- | --- | --- | --- | --- | --- | --- | --- | --- | --- | --- | --- | --- | --- | --- | --- |
| COc1ccc(C2C3=C(NC(=O)C2C#N)c2ccc4ccccc4c2OCC3)cc1 (stereo not given) | 23.9 | 56.5 | 70.4 | > 100 | 87.1 | > 100 | 16.3 | 48.9 | 28.2 | 86.3 | 74.5 | > 100 | > 100 | > 100 |  |  |
| COc1ccc(-c2cc3cccc(OC)c3c(=O)o2)cc1OC | 19.7 | > 100 | 43.4 | > 100 | 47.9 | > 100 | 32 | > 100 | 62.5 | > 100 | 48.6 | > 100 | 0.436 | > 100 |  |  |
| O=C(NO)c1ccc(C(=O)NO)cc1 |  | > 100 |  | > 100 |  | > 100 |  | > 100 |  | > 100 |  |  |  | > 100 | 45.5 |  |
| COc1cc(-c2c3c(cn2S(=O)(=O)c2ccccc2)-c2nc(N)sc2CC3)cc(OC)c1OC | 4.45 | > 100 | 0.414 | 6.9 | 4.29 | > 100 | 1.04 | 14.5 | 2.05 | 63.2 | 0.349 | 6.83 | 0.35 | 15.6 | > 100 | 4.81 |
| O=S(=O)(Nc1ccc(-c2nc(-c3cccc(OCCN4CCOCC4)c3)c(-c3ccnc(Br)c3)[nH]2)cc1)c1ccccc1 | 5.37 | > 100 | 4.71 | > 100 | 2.43 | 8.71 | 2.26 | 6.78 | 3.5 | 57.3 | 3.14 | > 100 | 2.62 | > 100 | 3.71 | 1.85 |
| CC1(C)CCC(S(=O)(=O)c2ccc3c(c2)/C(=N\O)c2cc(S(=O)(=O)N4CCC(O)(c5cccc(C(F)(F)F)c5)CC4)ccc2-3)CC1 | 0.0612 | 2.2 | 0.0211 | 0.0442 | 0.118 | 1.37 | 0.053 | 0.185 | 0.0208 | 0.0489 | 0.0198 | 0.0452 | 0.0174 | 0.0443 | 0.0545 | 0.0237 |
| Cc1nc2sc(C(=O)Nc3cccc4ccccc34)c(N)c2cc1C(C)O (stereo not given) | 0.425 | > 50 | 0.155 |  | 0.394 | > 50 | 0.151 | > 50 | 0.244 | > 50 | 0.207 | > 22.4 | 0.15 | > 50 | > 50 | 0.647 |
| O=C(NNc1nc2cc(F)ccc2n2c(CN3CCOCC3)ccc12)c1ccccc1 | 0.399 | 2.18 | 0.242 | 1.65 | 0.567 | 2.7 | 0.363 | 2.06 | 0.117 | 4.03 | 0.369 | 3.52 | 0.0639 |  | 3.07 | 0.569 |
| CCOc1ccc(NC(=O)Nc2cc(C(C)C)ccc2C)cc1 | 5.15 | 24 | 5.33 | 13.6 | 16.4 | 98.1 | 1.64 | 4.9 | 8.78 | 22.8 | 9.53 | 78.3 | 0.952 | > 22.9 | > 92.2 | 11 |
| CN(C(=O)c1ccc(F)cc1C(F)(F)F)C1CCN(c2nnc(-c3ccnn3C)c3ccccc23)CC1 | 51 | > 100 | 38.1 | > 100 | 29.3 | > 100 | 17.4 | > 84.3 | 65.1 | > 100 | 16.2 | > 100 | 50.9 | > 100 | > 100 | > 93.3 |
| C[C@@H]1O[C@@H](O[C@H]2C[C@@H](O)[C@]3(CO)C4C(CC[C@]3(O)C2)[C@@]2(O)CC[C@H](C3=CC(=O)OC3)[C@@]2(C)C[C@H]4O)[C@H](O)[C@H](O)[C@H]1O (stereo not given in full) | 0.0178 | 0.0844 | 0.0168 | 0.0487 | 0.0163 | 0.0602 | 0.0115 | 0.0291 | 0.0137 | 0.0385 | 0.0117 | 0.0323 | 0.0105 | 0.0317 | 0.238 | 0.088 |
| c1ccc2c(c1)O[As](O[As]1Oc3ccccc3O1)O2 | 3.02 | 14.9 | 2.35 | 7.41 |  |  | 1.64 | 13 | 3.62 | 14.2 | 0.548 | 2.06 | 1.61 | 7.39 | 18.4 | 4.96 |
